Test results as given in patent US10800789B2, “Antiviral compounds” (Gilead Pharmasset LLC, priority 2012, dated 2020).
pEC50: −log10 of the molar value. Where two headings read alike, the source gives them in different places.

Legend:
[1] = IV and PO single dose pharmacokinetic studies in SD rats; format: in vivo, male Sprague-Dawley (SD) rats; conditions: male SD rats, PO 2 mg/kg vs IV infusion 1 mg/kg; for bioavailability: Sprague-Dawley, rat, plasma, read-out: Rat % F; for Rat % F: oral bioavailability
How it was run: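 Fasted male Sprague-Dawley rats (250-300g, n=3/group) were given 1 mg/kg IV as a 30-min jugular infusion (5% ethanol/35% PEG 400/water pH 2.0) or 2 mg/kg by oral gavage (5% ethanol/55% PEG 400/citrate pH 2.2). Plasma was sampled to 24 h and analysed by LC/MS/MS. Non-compartmental parameters were derived, and %F was calculated from the oral/IV AUC ratio.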

[2] = system: NS5A chimeric genotype 2a JFH-1 replicon with genotype 2b MD2b-1 strain NS5A gene (M31 present); assay: Replicon assay, genotype 2b NS5A chimera; format: cell-based, HCV
How it was run: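 Cells carrying the stable or transiently transfected (Huh-Lunet) dicistronic RLuc replicons received 3-fold serial compound dilutions from 10 mM DMSO stocks. After 72 h, cells were lysed and Renilla luciferase read. DMSO served as the no-inhibition control and ITMN-191 above 100×EC50 as the positive control; EC50 by non-linear regression.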

[3] = system: stable HCV 1b RLuc replicon cells (dicistronic genotype 1b Con1 replicon); assay: Renilla luciferase HCV replicon reporter assay, genotype 1b; format: cell-based; conditions: for pEC50: stable 1b Con1 RLuc replicon cells, 72 hours, read-out: 1b
How it was run: (§1)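 Antiviral EC50 was determined in HCV replicon cells (stable RLuc lines for 1a H77, 1b Con1, 2a JFH-1 with NS5A L31; J6 NS5A chimera with M31) treated 72 h with compound. Renilla luciferase was then quantified.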

[4] = system: NS5A chimeric genotype 1b Con1 replicon with genotype 4a ED43 strain NS5A gene; assay: Replicon assay, genotype 4a NS5A chimera; format: cell-based, HCV; conditions: for EC50: read-out: 4a (s) (nM), genotype 4a NS5A chimeric replicon, stable replicon cells (s)
[5] = system: NS5A chimeric genotype 2a JFH-1 replicon with genotype 2a J6 strain NS5A gene (M31 present); assay: Replicon assay, genotype 2a J6 NS5A chimera; format: cell-based, HCV; conditions: for EC50: read-out: 2a J6 (t) (nM), genotype 2a J6 NS5A chimeric replicon (M31), transiently transfected (t) into Huh-Lunet cells
How it was run: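 First, 3-fold serial dilutions of compound went onto replicon cells, DMSO serving as no-inhibition control and ITMN-191 at >100×EC50 as positive control. Next came 72 h incubation, lysis and Renilla luciferase measurement. Finally, EC50 was calculated by non-linear regression; replicons covered genotypes 1a H77, 1b Con1, 2a JFH-1 (L31) and J6-NS5A chimera (M31).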

[6] = system: stable HCV 1a RLuc replicon cells (dicistronic genotype 1a H77 replicon); assay: Renilla luciferase HCV replicon reporter assay, genotype 1a; format: cell-based; conditions: stable 1a H77 RLuc replicon cells
How it was run: as §1

[7] = system: NS5A chimeric genotype 1b Con1 replicon with genotype 3a S52 strain NS5A gene; assay: Replicon assay, genotype 3a NS5A chimera; format: cell-based, HCV
[8] = system: stable HCV 2a JFH-1 Rluc replicon cells (L31 present in NS5A); assay: Renilla luciferase HCV replicon reporter assay, genotype 2a JFH-1; format: cell-based; conditions: for EC50: read-out: 2a JFH (nM), genotype 2a JFH-1 replicon (L31 in NS5A), stable cells
How it was run: as §1

[9] = system: Q30R in genotype 1a NS5A (1a Pi-Rluc replicon, Huh-7-derived cured-51 cells); assay: Replicon assay against resistance mutant 1a Q30R; format: cell-based, HCV; conditions: for pEC50: read-out: 1a Q30R; for EC50: read-out: 1a Q30R (nM)
How it was run: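 Q30R introduced by site-directed mutagenesis into the 1a Pi-RLuc replicon; replicon RNA transiently transfected into cured-51 cells. Cells treated with 3-fold serially diluted compound for 72 h, then lysed and Renilla luciferase measured; EC50 by non-linear regression.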

[10] = Hepatitis C virus, 2BS, read-out: 2b (s), stably replicating replicon cells (s), activity range
[11] = Hepatitis C virus, read-out: 2b (s) (nM), genotype 2b MD2b-1 NS5A chimeric replicon (M31), stably replicating replicon cells (s)
[12] = Hepatitis C virus, read-out: 4a (s), (s), activity range
[13] = Hepatitis C virus, read-out: 2a J6 (t), transiently transfected (t) into Huh-Lunet cells, activity range
[14] = Hepatitis C virus, 72 h, activity range
[15] = Hepatitis C virus, read-out: 3a (s) (nM), genotype 3a NS5A chimeric replicon, stable replicon cells (s)
[16] = Hepatitis C virus, read-out: 3a (s), (s), activity range
[17] = Hepatitis C virus, read-out: 2a JFH, stable 2a JFH-1 Rluc replicon cells, L31 in NS5A, activity range
[18] = Hepatitis C virus, read-out: 2b (t) (nM), genotype 2b MD2b-1 NS5A chimeric replicon (M31), transiently transfected (t)
[19] = Hepatitis C virus, read-out: 2b (t), transiently transfected (t) into Huh-Lunet cells, activity range

Structure (SMILES) | bioavailability [1] | pEC50 [2, 10] | EC50 [2, 11] | pEC50 ([3]; Hepatitis C virus, 72 h) | EC50 ([4]; Hepatitis C virus) | pEC50 [4, 12] | EC50 ([5]; Hepatitis C virus) | pEC50 [5, 13] | pEC50 ([6]; Hepatitis C virus, 72 h) | pEC50 [6, 14] | EC50 [7, 15] | pEC50 [7, 16] | EC50 ([8]; Hepatitis C virus) | pEC50 [8, 17] | pEC50 ([9]; Hepatitis C virus) | EC50 ([9]; Hepatitis C virus) | Rat % F [1] | EC50 [2, 18] | pEC50 [2, 19] | further results
COC[C@H]1C[C@@H](c2nc(Cl)c(-c3ccc4c(c3)COc3cc5c(ccc6nc([C@@H]7CC[C@H](C)N7C(=O)[C@@H](NC(=O)OC)C(C)C)[nH]c65)cc3-4)[nH]2)N(C(=O)[C@H](NC(=O)OC)c2ccccc2)C1 [FY, Methyl {(1R)-2-[(2S,4S)-2-(4-chloro-5-{2-[(2S,5S)-1-{(2S)-2-[(methoxycarbonyl)amino]-3-methylbutanoyl}-5-methylpyrrolidin-2-yl]-1,11-dihydroisochromeno[4′,3′:6,7]naphtho[1,2-d]imidazol-9-yl}-1H-imidazol-2-yl)-4-(methoxymethyl)pyrrolidin-1-yl]-2-oxo-1-phenylethyl}carbamate] | 13.5% | > 10.00 | 0.034 nM | 10.77 | 0.005 nM | > 10.00 | 0.005 nM | > 10.00 | 11.00 | > 10.00 | 0.029 nM | > 10.00 | 0.007 nM | > 10.00 | > 10.00 | 0.017 nM | – | – | – | –
COC(=O)N[C@H](C(=O)N1[C@@H](C)CC[C@H]1c1ncc(-c2ccc3c(c2)COc2cc4c(ccc5nc([C@@H]6CC[C@H](C)N6C(=O)[C@@H](NC(=O)OC)C6CCOCC6)[nH]c54)cc2-3)[nH]1)C(C)C [FC, Methyl [(1 S)-2-[(2S,5S)-2-(9-{2-[(2S,5S)-1-{(2S)-2-[(methoxycarbonyl)amino]-3-methylbutanoyl}-5-methylpyrrolidin-2-yl]-1H-imidazol-5-yl}-1,11-dihydroisochromeno[4′,3′:6,7]naphtho[1,2-d]imidazol-2-yl)-5-methylpyrrolidin-1-yl]-2-oxo-1-(tetrahydro-2H-pyran-4-yl)ethyl]carbamate] | – | > 10.00 | 0.048 nM | – | 0.011 nM | > 10.00 | 0.015 nM | > 10.00 | 10.85 | > 10.00 | 0.031 nM | > 10.00 | 0.011 nM | > 10.00 | > 10.00 | 0.031 nM | 0% | 0.024 nM | > 10.00 | EC50 ([3]; Hepatitis C virus, 72 h, read-out: 1b (nM), stable 1b Con1 RLuc replicon cells, 72 hours): 0.021 nM
COC(=O)N[C@H](C(=O)N1[C@@H](C)CC[C@H]1c1ncc(-c2ccc3c(c2)COc2cc4c(ccc5nc([C@@H]6CC[C@H](C)N6C(=O)[C@@H](NC(=O)OC)[C@@H](C)OC)[nH]c54)cc2-3)[nH]1)C(C)C [DX, Methyl {(2S)-1-[(2S,4S)-2-(5-{2-[(2S,5S)-1-{(2S,3R)-3-methoxy-2-[(methoxycarbonyl)amino]butanoyl}-5-methylpyrrolidin-2-yl]-1,11-dihydroisochromeno[4′,3′:6,7]naphtho[1,2-d]imidazol-9-yl}-1H-imidazol-2-yl)-5-methylpyrrolidin-1-yl]-3-methyl-1-oxobutan-2-yl}carbamate] | – | – | – | – | – | – | – | – | – | – | – | – | – | – | – | – | 21.3% | – | – | pEC50 ([2]; genotype 2b MD2b-1 NS5A chimeric replicon (M31), stably replicating replicon cells (s), read-out: 2b (s)): 9.70; pEC50 ([2]; genotype 2b MD2b-1 NS5A chimeric replicon (M31), transiently transfected (t), read-out: 2b (t)): 10.22; pEC50 ([2]; stably replicating replicon cells (s), activity range, read-out: 2b (s)): 9.00 to 10.00; pEC50 ([2]; transiently transfected (t) into Huh-Lunet cells, activity range, read-out: 2b (t)): > 10.00; pEC50 [3]: 10.51; pEC50 ([4]; (s), activity range, read-out: 4a (s)): > 10.00; pEC50 ([4]; genotype 4a NS5A chimeric replicon, stable replicon cells (s), read-out: 4a (s)): 10.74; pEC50 ([5]; genotype 2a J6 NS5A chimeric replicon (M31), transiently transfected (t) into Huh-Lunet cells, read-out: 2a J6 (t)): 9.96; pEC50 ([5]; transiently transfected (t) into Huh-Lunet cells, activity range, read-out: 2a J6 (t)): 9.00 to 10.00; pEC50 ([6]; 72 hours): 10.68; pEC50 ([6]; 72 hours, activity range): > 10.00; pEC50 ([7]; (s), activity range, read-out: 3a (s)): > 10.00; pEC50 ([7]; genotype 3a NS5A chimeric replicon, stable replicon cells (s), read-out: 3a (s)): 10.32; pEC50 ([8]; genotype 2a JFH-1 replicon (L31 in NS5A), stable cells, read-out: 2a JFH): 10.72; pEC50 ([8]; stable 2a JFH-1 Rluc replicon cells, L31 in NS5A, activity range, read-out: 2a JFH): > 10.00; pEC50 ([9]; Q30R mutant replicon transiently transfected into Huh-7-derived cured-51 cells, activity range): 9.00 to 10.00; pEC50 ([9]; Q30R mutant replicon transiently transfected into Huh-7-derived cured-51 cells): 9.86
COC(=O)N[C@H](C(=O)N1[C@@H](C)CC[C@H]1c1ncc(-c2ccc3c(c2)COc2cc4c(ccc5nc([C@@H]6C[C@@H]7CCC[C@@H]7N6C(=O)[C@@H](NC(=O)OC)C6CCOCC6)[nH]c54)cc2-3)[nH]1)C(C)C [IA] | 21.8% | > 10.00 | 0.062 nM | 10.62 | 0.019 nM | > 10.00 | 0.024 nM | > 10.00 | 10.82 | > 10.00 | 0.052 nM | > 10.00 | 0.021 nM | > 10.00 | > 10.00 | 0.024 nM | – | 0.033 nM | > 10.00 | EC50 ([7]; Hepatitis C virus, read-out: 3a (t) (nM), genotype 3a NS5A chimeric replicon, transiently transfected (t)): 0.055 nM; pEC50 ([7]; Hepatitis C virus, read-out: 3a (t), transiently transfected (t) into Huh-Lunet cells, activity range): > 10.00
COC(=O)N[C@H](C(=O)N1[C@@H](C)CC[C@H]1c1ncc(-c2ccc3c(c2)COc2cc4c(ccc5nc([C@@H]6CC[C@H](C)N6C(=O)[C@@H](NC(=O)OC)[C@@H](C)OC)[nH]c54)cc2-3)[nH]1)C(C)C [FA, Methyl [(2S)-1-{(2S,5S)-2-[5-(2-{(2S,5S)-1-[N-(methoxycarbonyl)-O-methyl-L-threonyl]-5-methylpyrrolidin-2-yl}-1,11-dihydroisochromeno[4′,3′:6,7]naphtho[1,2-d]imidazol-9-yl)-1H-imidazol-2-yl]-5-methylpyrrolidin-1-yl}-3-methyl-1-oxobutan-2-yl]carbamate] | 13.5% | 9.00 to 10.00 | 0.13 nM | 10.85 | 0.011 nM | > 10.00 | 0.033 nM | > 10.00 | 10.96 | > 10.00 | 0.034 nM | > 10.00 | 0.014 nM | > 10.00 | > 10.00 | 0.046 nM | – | 0.036 nM | > 10.00 | –
COC(=O)NC(C(=O)N1[C@@H](C)CC[C@H]1c1nc2ccc3cc4c(cc3c2[nH]1)OCc1cc(-c2cnc([C@@H]3CC[C@H](C)N3C(=O)[C@@H](NC(=O)OC)C3CCOCC3)[nH]2)ccc1-4)C1CCOCC1 (stereo partly drawn) [EB, Methyl [(1 S)-2-[(2S,5S)-2-(5-{2-[(2S,5S)-1-{[(methoxycarbonyl)amino](tetrahydro-2H-pyran-4-yl)acetyl}-5-methylpyrrolidin-2-yl]-1,11-dihydroisochromeno[4′,3′:6,7]naphtho[1,2-d]imidazol-9-yl}-1H-imidazol-2-yl)-5-methylpyrrolidin-1-yl]-2-oxo-1-(tetrahydro-2H-pyran-4-yl)ethyl]carbamate] | 4.2% | > 10.00 | 0.038 nM | 10.29 | 0.014 nM | > 10.00 | 0.012 nM | > 10.00 | 10.62 | > 10.00 | 0.075 nM | > 10.00 | 0.012 nM | > 10.00 | > 10.00 | 0.042 nM | – | 0.092 nM | > 10.00 | –
